Measurements: patent publication US6248367A, “Bovine excretion extracts having anticancer and anti-inflammatory activity and process for preparing the same” (Kim; Bok Deuk, priority 1998, dated 2001)

Test: in vitro
Conditions: rat, erythrocytes
Procedure: Cytotoxicity of the bovine excretion extracts according to the present invention was tested by measuring degree of hemolysis of erythrocytes. To erytlirocytes isolated from rats, the extracts prepared in example 1 were added and then, the mixture was cultivated at a temperature of 37° C. for 30, 60 and 120 minutes, respectively. After centrifugation, 400 μl of medium was taken and then reagent for detection of hemolysis was added thereto. Then, absorbance was read at 540 nm to determine degree of hemolysis. Degree of hemolysis (%) is calculated as follows: [formula]
Erythrocytes treated with menadione (positive control) were measured on degree of hemolysis, for the purpose of comparison with the bovine excretion extracts prepared in example 1. Menadione is a known compound which induce hemolysis of erythrocytes.

`CC1=CC(=O)c2ccccc2C1=O` [menadione, Menadione] gave a hemolysis at 0 h of 0%, a hemolysis at 0.5 h of 1.6 ± 1.3% and a hemolysis at 1 h of 2.3 ± 0.4%. For the same compound, the hemolysis at 2 h was 65.3 ± 4.8%.
